Data set [1] concerns the target T1, neutral endopeptidase (NEP) (Homo sapiens, UniProt P08473).
T1 construct: purchased R&D Systems, Inc., U.S.A
In words: Resistance to peptidase: stability to hNEP (HPLC residual rate). Conditions: human, isolated enzyme neprilysin, pH 6.5. It counts as in vitro ADME. The protocol: The experiment was conducted in N=2 for each sample. Native CNP-22, chimeric CNP (A, B) (structure mentioned already; final concentration: 0.5 μg/mL) and 100 μL of reaction solution (medium: 20 mM MES, pH 6.5) of human type recombinant neutral endopeptidase (hNEP, manufactured by R&D Systems, Inc., U.S.A.) were prepared. […] Distilled water (100 μL) was added to the sample after boiling followed by well mixing and 50 μL thereof was analyzed in a water-acetonitrile system using a high-performance liquid chromatography system LC-10A (manufactured by Shimadzu). The analytical data were analyzed by a Chromato-Pack (CRA-10A, manufactured by Shimadzu) and area of the peak zone of unchanged substance was calculated. The area of average zone of unchanged substance when made to react at 37° C. was divided by the area of average zone of the boiled sample to calculate the residual rate of the unchanged substance after 1 hour.

Data set [2] in a line: CNP immunoreactivity concentration in plasma after administration to rats (competitive RIA), pharmacokinetic parameters (Example 2). Conditions: rat, plasma, 0.1 mg/kg, male rats, N = 3, mean ± SD; for half-life: read-out: T½; for C0: extrapolated value. It counts as in vivo, rat. The protocol:
Pharmacokinetic parameters were calculated from the resulting changes in immunoreactivity concentrations in plasma. At that time, WinNonlin Professional Ver. 4.0.1 (manufactured by Pharsight Corporation, U.S.A.) was used as the analytical software. Method for the calculation of each parameter is mentioned as follows.
Concentration at time 0 (C0; extrapolated value, ng/mL), area under the curve for concentration in plasma vs. time (AUC; ng.min/mL) and quenching half-life (T½; minute(s)) were calculated as follows. C0 was calculated as a value at time by means of extrapolation from the changes in immunoreactivity concentration in plasma at each blood collection period. AUC was calculated by a trapezoidal method using the immunoreactivity concentrations in plasma at all measuring points (t) and an extrapolated value until the infinitive time was determined. T½ was calculated by means of a least-squares method from the inclination of a straight line connecting several points in a disappearing phase of the immunoreactivity concentration in plasma. In the case of a subcutaneous administration, C0 was not determined but the maximum concentration in plasma (Cmax; ng/mL) and the time reaching the maximum concentration in plasma (Tmax; min) were determined.
Changes in CNP immunoreactivity concentration in plasma of native CNP-22 and chimeric peptide (chimeric CNP) where a half-life-extension peptide was added to CNP were investigated.
The experiment was conducted in the same manner as in Example 1 that rats where polyethylene tube was previously inserted into thigh artery were used under an anesthetizing condition with Nembutal and male SD strain rats of 7 weeks age (purchased from Nippon Charles River) were used where one group comprised 3 rats. […] At that time, a rabbit polyclonal antibody (#2) recognizing a ring part of native CNP-22 was used as an antibody and ^125I-[Tyr^0] CNP was used as a labeling compound. Pharmacokinetic analysis was carried out by the same method as in Example 1.

Another data set has as its target T2, NEP (Rattus norvegicus, UniProt P07861).
T2 construct: male SD strain rats of 7 weeks age (Nippon Charles River; body weight: ca. 250 g) were used; from tissue; host or cells: whole animal: male SD rats (Nippon Charles River), in vivo
T2 sequence (P07861 1-750): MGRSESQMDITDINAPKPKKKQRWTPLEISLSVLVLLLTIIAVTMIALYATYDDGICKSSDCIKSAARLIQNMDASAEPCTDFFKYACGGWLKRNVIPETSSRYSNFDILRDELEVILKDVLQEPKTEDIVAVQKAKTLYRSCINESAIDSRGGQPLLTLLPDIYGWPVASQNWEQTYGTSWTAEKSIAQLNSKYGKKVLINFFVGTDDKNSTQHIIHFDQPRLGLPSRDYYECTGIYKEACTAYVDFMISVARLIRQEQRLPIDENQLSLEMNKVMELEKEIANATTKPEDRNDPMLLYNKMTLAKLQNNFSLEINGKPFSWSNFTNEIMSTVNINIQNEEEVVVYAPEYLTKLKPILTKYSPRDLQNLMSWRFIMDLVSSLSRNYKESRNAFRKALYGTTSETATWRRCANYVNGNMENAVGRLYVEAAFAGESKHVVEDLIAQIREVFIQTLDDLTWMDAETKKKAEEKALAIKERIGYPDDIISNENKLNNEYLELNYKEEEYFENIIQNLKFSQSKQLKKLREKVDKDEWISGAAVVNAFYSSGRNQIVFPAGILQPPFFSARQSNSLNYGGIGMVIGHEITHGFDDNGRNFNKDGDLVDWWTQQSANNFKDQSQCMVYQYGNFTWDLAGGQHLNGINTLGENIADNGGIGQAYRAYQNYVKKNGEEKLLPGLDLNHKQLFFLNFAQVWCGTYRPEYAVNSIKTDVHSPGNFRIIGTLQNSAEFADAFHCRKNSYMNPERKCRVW
The data set can be described thus: NEP resistance in vivo: influence of NEP inhibitor on pharmacokinetic parameters after intravenous administration. To be noted: rat, in vivo. As to the method: Further, NEP resistance in vivo of the native CNP-22 and chimeric CNP (B) was evaluated using the effect by the joint use with an NEP inhibitor affecting on changes in CNP immunoreactivity concentration in plasma after the intravenous administration as an index. This test was also carried out using rats into which a polyethylene tube (PE-50, manufactured by Clay […].) was inserted into thigh artery for collection of blood and rats into which a polyethylene tube (PE-10, manufactured by Clay […].) was inserted into thigh vein for administration of an NEP inhibitor under an anesthetizing condition using Nembutal. As a test system, male SD strain rats of 7 weeks age (Nippon Charles River; body weight: ca. 250 g) were used for the experiment where one group comprised 3 rats. […] Time for the administration was from 10 minutes before the administration of the native CNP-22 or the chimeric CNP (B) to completion of blood collection which was 60 minutes after the administration. The native CNP-22 and the chimeric CNP (B) each was administered into the tail vein in a dose of 20 μg/kg and the blood before starting the administration of NEP inhibitor (-10 minutes), before the administration of CNP (0 minute) and until after 60 minutes from the administration was collected by a thigh artery cannula. After a stabilizer and an anticoagulant were added to the collected blood, it was centrifuged to give plasma and the immunoreactivity concentration in the plasma was measured by the above-mentioned competitive RIA. The pharmacokinetic analysis was carried out by the same method as in Example 1.

Another data set can be described thus: in vivo. To be noted: male, SD, rat, iv, 20 nmol/kg.

Structures are written as SMILES. Where a SMILES comes first, the peptide text is derived from it. Bridges are numbered along the chain shown (N, C = ends).

T1 sequence (P08473 whole entry): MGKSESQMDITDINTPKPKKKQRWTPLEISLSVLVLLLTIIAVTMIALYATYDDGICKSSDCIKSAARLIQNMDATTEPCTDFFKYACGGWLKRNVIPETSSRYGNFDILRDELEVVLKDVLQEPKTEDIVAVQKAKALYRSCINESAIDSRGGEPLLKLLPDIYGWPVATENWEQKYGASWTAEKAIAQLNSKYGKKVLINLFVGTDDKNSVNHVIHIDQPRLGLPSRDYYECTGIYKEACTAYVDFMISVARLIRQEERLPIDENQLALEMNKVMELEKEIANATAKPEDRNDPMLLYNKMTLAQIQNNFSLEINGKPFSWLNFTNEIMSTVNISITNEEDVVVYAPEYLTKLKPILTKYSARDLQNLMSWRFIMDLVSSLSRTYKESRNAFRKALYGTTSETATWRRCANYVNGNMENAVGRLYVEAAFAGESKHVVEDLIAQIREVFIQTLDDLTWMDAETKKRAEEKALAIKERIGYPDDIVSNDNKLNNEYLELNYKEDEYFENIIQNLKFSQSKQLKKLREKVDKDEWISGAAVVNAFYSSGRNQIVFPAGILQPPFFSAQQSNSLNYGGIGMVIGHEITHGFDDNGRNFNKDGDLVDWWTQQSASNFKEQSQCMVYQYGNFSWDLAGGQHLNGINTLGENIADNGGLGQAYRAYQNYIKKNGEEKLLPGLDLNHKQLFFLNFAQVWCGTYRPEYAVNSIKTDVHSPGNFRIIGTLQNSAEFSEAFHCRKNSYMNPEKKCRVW

Take `CC[C@H](C)[C@@H]1NC(=O)[C@H](CCCNC(=N)N)NC(=O)[C@H](CC(=O)O)NC(=O)[C@H](CC(C)C)NC(=O)[C@H](CCCCN)NC(=O)[C@H](CC(C)C)NC(=O)CNC(=O)[C@H](Cc2ccccc2)NC(=O)[C@@H](NC(=O)[C@@H](NC(=O)[C@H](CCC(N)=O)NC(=O)[C@H](CCC(N)=O)NC(=O)[C@H](CCCNC(=N)N)NC(=O)[C@H](CCCCN)NC(=O)[C@H](CCC(=O)O)NC(=O)[C@H](CO)NC(=O)[C@H](CCCCN)NC(=O)[C@H](CCCCN)NC(=O)[C@@H]2CCCN2C(=O)[C@@H]2CCCN2C(=O)[C@H](C)NC(=O)[C@H](CCCCN)NC(=O)[C@H](CC(C)C)NC(=O)[C@H](CCC(N)=O)NC(=O)[C@@H]2CCCN2C(=O)[C@@H](N)CCCNC(=N)N)C(C)C)CSSC[C@@H](C(=O)O)NC(=O)CNC(=O)[C@H](CC(C)C)NC(=O)CNC(=O)[C@H](CO)NC(=O)[C@H](CCSC)NC(=O)[C@H](CO)NC(=O)CNC1=O` [Chimeric CNP (A)] (H-RPQLKAPPKKSEKRQQVCFGLKLDRIGSMSGLGC-OH; disulfide 18-34; N-terminus and C-terminus assumed): in data set [1], the amount remaining at 1 h, 0.5 μg/mL was found to be 84.3%. In data set [2] (sc, subcutaneous), the AUC(0-inf) was 24.9 ng·h/mL, the Cmax stood at 27.9 ± 2.7 ng/mL, the Tmax is 13.3 min and the half-life was determined as 20.7 ± 7.5 min. Moreover, in data set [2] (intravenous), the AUC(0-inf) is 107 ng·h/mL, the C0 is 1030 ± 358 ng/mL and the half-life came to 21.7 ± 6.1 min.
For `CC[C@H](C)[C@@H]1NC(=O)[C@H](CCCNC(=N)N)NC(=O)[C@H](CC(=O)O)NC(=O)[C@H](CC(C)C)NC(=O)[C@H](CCCCN)NC(=O)[C@H](CC(C)C)NC(=O)CNC(=O)[C@H](Cc2ccccc2)NC(=O)[C@@H](N)CSSC[C@@H](C(=O)N[C@H](C(=O)N[C@@H](CCC(N)=O)C(=O)N[C@@H](CCC(N)=O)C(=O)N[C@@H](CCCNC(=N)N)C(=O)N[C@@H](CCCCN)C(=O)N[C@@H](CCC(=O)O)C(=O)N[C@@H](CO)C(=O)N[C@@H](CCCCN)C(=O)N[C@@H](CCCCN)C(=O)N2CCC[C@H]2C(=O)N2CCC[C@H]2C(=O)N[C@@H](C)C(=O)N[C@@H](CCCCN)C(=O)N[C@@H](CC(C)C)C(=O)N[C@@H](CCC(N)=O)C(=O)N2CCC[C@H]2C(=O)N[C@@H](CCCNC(=N)N)C(=O)O)C(C)C)NC(=O)CNC(=O)[C@H](CC(C)C)NC(=O)CNC(=O)[C@H](CO)NC(=O)[C@H](CCSC)NC(=O)[C@H](CO)NC(=O)CNC1=O` [Chimeric CNP (B)] (H-CFGLKLDRIGSMSGLGCVQQRKESKKPPAKLQPR-OH; disulfide 1-17; N-terminus and C-terminus assumed), in data set [1], the share remaining at 1 h, 0.5 μg/mL was found to be 83.8%. Further, on NEP (male, SD, iv, 0.02 mg/kg), the “AUC0→∞” value was determined as 1342 ± 168 ng·min/mL, the C0 turned out to be 203 ± 71 ng/mL and the T½ is 12.7 ± 1.2 min. For the same molecule, on NEP (male, SD, iv, 0.02 mg/kg, AUC0→∞), the AUC(0-inf) is 24.5 ng·h/mL. The C0 on NEP (male, SD, iv, 0.02 mg/kg, C0) was 253 ± 15 ng/mL. Further, the half-life at NEP (male, SD, iv, 0.02 mg/kg, T½) turned out to be 14.9 ± 3.1 min. Also, at NEP, the “decomposition by NEP in the body of the rat” value is recorded as “hardly decomposed by NEP”. Besides, in data set [2] (sc, subcutaneous), the area under the curve AUC(0-inf) is 28.1 ng·h/mL, the Cmax amounted to 32.8 ± 7.9 ng/mL, the Tmax is 10 min and the half-life worked out at 24 ± 9.7 min. Also, in data set [2] (intravenous), the total exposure AUC(0-inf) was 153 ng·h/mL, the C0 was 1470 ± 749 ng/mL and the half-life came out at 36.2 ± 2.3 min.
For the molecule `CC[C@H](C)[C@@H]1NC(=O)[C@H](CCCNC(=N)N)NC(=O)[C@H](CC(=O)O)NC(=O)[C@H](CC(C)C)NC(=O)[C@H](CCCCN)NC(=O)[C@H](CC(C)C)NC(=O)CNC(=O)[C@H](Cc2ccccc2)NC(=O)[C@@H](NC(=O)CNC(=O)[C@H](CCCCN)NC(=O)[C@H](CO)NC(=O)[C@H](CC(C)C)NC(=O)CN)CSSC[C@@H](C(=O)N[C@H](C(=O)N[C@@H](CCC(N)=O)C(=O)N[C@@H](CCC(N)=O)C(=O)N[C@@H](CCCNC(=N)N)C(=O)N[C@@H](CCCCN)C(=O)N[C@@H](CC(=O)O)C(=O)N[C@@H](CO)C(=O)N[C@@H](CCCCN)C(=O)N[C@@H](CCCCN)C(=O)N2CCC[C@H]2C(=O)N2CCC[C@H]2C(=O)N[C@@H](C)C(=O)N[C@@H](CCCCN)C(=O)N[C@@H](CC(C)C)C(=O)N[C@@H](CCC(N)=O)C(=O)N2CCC[C@H]2C(=O)N[C@@H](CCCNC(=N)N)C(=O)O)C(C)C)NC(=O)CNC(=O)[C@H](CC(C)C)NC(=O)CNC(=O)[C@H](CO)NC(=O)[C@H](CCSC)NC(=O)[C@H](CO)NC(=O)CNC1=O` [Chimeric CNP (J)] (H-GLSKGCFGLKLDRIGSMSGLGCVQQRKDSKKPPAKLQPR-OH; disulfide 6-22; N-terminus and C-terminus assumed), the half-life in the data set “in vivo” stood at 31.2 min.
On the same count and under the same terms, to `CC[C@H](C)[C@@H]1NC(=O)[C@H](CCCNC(=N)N)NC(=O)[C@H](CC(=O)O)NC(=O)[C@H](CC(C)C)NC(=O)[C@H](CCCCN)NC(=O)[C@H](CC(C)C)NC(=O)CNC(=O)[C@H](Cc2ccccc2)NC(=O)[C@@H](N)CSSC[C@@H](C(=O)N[C@@H](C)C(=O)NCC(=O)N[C@@H](CO)C(=O)N[C@H](C(=O)N[C@@H](CC(=O)O)C(=O)N[C@@H](Cc2c[nH]cn2)C(=O)N[C@@H](CCCCN)C(=O)NCC(=O)N[C@@H](CCCCN)C(=O)N[C@@H](CCC(N)=O)C(=O)N[C@@H](CCCNC(=N)N)C(=O)N[C@@H](CCCCN)C(=O)N[C@H](C(=O)N[C@H](C(=O)N[C@@H](CC(=O)O)C(=O)N[C@@H](Cc2c[nH]cn2)C(=O)N2CCC[C@H]2C(=O)N[C@@H](CCCCN)C(=O)N[C@@H](CCCNC(=N)N)C(=O)O)C(C)C)C(C)C)C(C)C)NC(=O)CNC(=O)[C@H](CC(C)C)NC(=O)CNC(=O)[C@H](CO)NC(=O)[C@H](CCSC)NC(=O)[C@H](CO)NC(=O)CNC1=O` [Chimeric CNP (K)] (H-CFGLKLDRIGSMSGLGCAGSVDHKGKQRKVVDHPKR-OH; disulfide 1-17; N-terminus and C-terminus assumed) belongs 18 min.

The values above are taken from US8551937B2, “Peptide having an extending action for half-life of object peptide in plasma” (priority 2008, dated 2013).
